Where “and” joins values, the source holds several entries; their conditions need not be identical. Equal entries are not always repeated. Inconclusive results and toxic doses are left out.
Tested on: P388 leukemia ip, CD2F1 mice, survival T/C
Assay: NCI In Vivo Anticancer Drug Screen. Data for tumor model P388 Leukemia (intraperitoneal) in CD2F1 (CDF1) mice
Settings: endpoint: median survival time, higher = longer survival
How it was run: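 Mice carrying the transplanted tumor received test compound or vehicle. Survival was recorded in each group, and the value is the treated-group measurement divided by that of the vehicle-treated control group.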

[1] = dose: 100.0 mg/kg/injection, schedule: Q04DX002 (ip), vehicle: saline with Tween-80
[2] = dose: 200.0 mg/kg/injection, schedule: Q04DX002 (ip), vehicle: saline with Tween-80
[3] = dose: 400.0 mg/kg/injection, schedule: Q04DX002 (ip), vehicle: saline with Tween-80
[4] = dose: 60.0 mg/kg/injection, schedule: Q01DX005 (ip), vehicle: Klucel (hydroxypropylcellulose) (HPC)
[5] = dose: 120.0 mg/kg/injection, schedule: Q01DX005 (ip), vehicle: Klucel (hydroxypropylcellulose) (HPC)
[6] = dose: 100.0 mg/kg/injection, schedule: Q01DX001 (ip), vehicle: saline with Tween-80
[7] = dose: 200.0 mg/kg/injection, schedule: Q01DX001 (ip), vehicle: saline with Tween-80
[8] = dose: 400.0 mg/kg/injection, schedule: Q01DX001 (ip), vehicle: saline with Tween-80
[9] = dose: 240.0 mg/kg/injection, schedule: Q01DX005 (ip), vehicle: Klucel (hydroxypropylcellulose) (HPC)
[10] = dose: 50.0 mg/kg/injection, schedule: Q01DX005 (ip), vehicle: saline with Tween-80
[11] = dose: 100.0 mg/kg/injection, schedule: Q01DX005 (ip), vehicle: saline with Tween-80
[12] = dose: 12.5 mg/kg/injection, schedule: Q01DX005 (ip), vehicle: saline with Tween-80

OC1CSCc2ccccc21 (stereo unspecified)
T/C (dose: 25.0 mg/kg/injection, schedule: Q01DX009 (ip), vehicle: other): 109 % of control | T/C (dose: 50.0 mg/kg/injection, schedule: Q01DX009 (ip), vehicle: other): 102 % of control | T/C (dose: 100.0 mg/kg/injection, schedule: Q01DX009 (ip), vehicle: other): 109 % of control | T/C (dose: 200.0 mg/kg/injection, schedule: Q01DX009 (ip), vehicle: other): 108 % of control

CSc1nc2c(SC)ncnc2s1
T/C (dose: 100.0 mg/kg/injection, schedule: Q01DX001 (ip), vehicle: distilled water + alcohol): 103 % of control | T/C (dose: 200.0 mg/kg/injection, schedule: Q01DX001 (ip), vehicle: distilled water + alcohol): 94 % of control | T/C (dose: 400.0 mg/kg/injection, schedule: Q01DX001 (ip), vehicle: distilled water + alcohol): 98 % of control

O=C(O)C1(Cc2ccc(O)c(O)c2)NCCS1 (stereo unspecified)
T/C (dose: 100.0 mg/kg/injection, schedule: Q01DX001 (ip), vehicle: Klucel (hydroxypropylcellulose) (HPC)): 104 % of control | T/C (dose: 200.0 mg/kg/injection, schedule: Q01DX001 (ip), vehicle: Klucel (hydroxypropylcellulose) (HPC)): 100 % of control

CC1=NN(C2=NS(=O)(=O)c3ccccc3N2c2ccccc2)C(=O)C1
T/C [1]: 108 % of control | T/C [2]: 106 % of control | T/C [3]: 97 % of control

O=C(Oc1c(Cc2ccccc2)c(=O)[nH]c2ccccc12)c1ccccc1
T/C [4]: 90 % of control | T/C [5]: 89 % of control

O=C1CCCC/C1=C/c1ccccc1
T/C (dose: 25.0 mg/kg/injection, schedule: Q01DX005 (ip), vehicle: distilled water + Tween-80 + alcohol): 98 % of control | T/C (dose: 50.0 mg/kg/injection, schedule: Q01DX005 (ip), vehicle: distilled water + Tween-80 + alcohol): 98 % of control | T/C (dose: 100.0 mg/kg/injection, schedule: Q01DX005 (ip), vehicle: distilled water + Tween-80 + alcohol): 100 % of control | T/C (dose: 200.0 mg/kg/injection, schedule: Q01DX005 (ip), vehicle: distilled water + Tween-80 + alcohol): 98 % of control

COc1cc2c(c(OC)c1OC)-c1ccc(SC)c(=O)cc1[C@@H](NC1OCC(O)C(O)C1O)CC2 (stereo partly specified)
T/C (dose: 1.5 mg/kg/injection, schedule: Q01DX009 (ip), vehicle: water): 105 % of control | T/C (dose: 3.0 mg/kg/injection, schedule: Q01DX009 (ip), vehicle: water): 117 % of control | T/C (dose: 6.0 mg/kg/injection, schedule: Q01DX009 (ip), vehicle: water): 113 % of control | T/C (dose: 12.0 mg/kg/injection, schedule: Q01DX009 (ip), vehicle: water): 121 % of control | T/C (dose: 24.0 mg/kg/injection, schedule: Q01DX009 (ip), vehicle: other): 152 % of control | T/C (dose: 24.0 mg/kg/injection, schedule: Q01DX009 (ip), vehicle: water): 123 % of control | T/C (dose: 48.0 mg/kg/injection, schedule: Q01DX009 (ip), vehicle: other): 155 % of control

O=c1oc(-c2ccc(Cl)c([N+](=O)[O-])c2)ns1
T/C (dose: 100.0 mg/kg/injection, schedule: Q01DX009 (ip), vehicle: Klucel (hydroxypropylcellulose) (HPC)): 107 % of control | T/C (dose: 200.0 mg/kg/injection, schedule: Q01DX009 (ip), vehicle: Klucel (hydroxypropylcellulose) (HPC)): 113 % of control

OCC(O)C(O)C(O)c1nnc2c3ccccc3c(-c3ccccc3)nn12 (stereo unspecified)
T/C [6]: 89 % of control | T/C [1]: 91 % of control | T/C [7]: 90 % of control | T/C [2]: 90 % of control | T/C [8]: 88 % of control | T/C [3]: 93 % of control

O=C(Nc1ccc(Cl)cc1)Nc1nnc(-c2ccccc2Br)o1
T/C (dose: 60.0 mg/kg/injection, schedule: Q01DX005 (ip), vehicle: saline with Tween-80): 105 % of control | T/C (dose: 120.0 mg/kg/injection, schedule: Q01DX005 (ip), vehicle: saline with Tween-80): 94 % of control | T/C (dose: 240.0 mg/kg/injection, schedule: Q01DX005 (ip), vehicle: saline with Tween-80): 95 % of control

CCCCCc1c(-c2n[nH]c(C)c2CCCCC)n[nH]c1C
T/C [4]: 92 % of control | T/C [5]: 96 % of control | T/C [9]: 100 % of control

CS(C)(NC(N)=O)OS(=O)(=O)O
T/C (dose: 60.0 mg/kg/injection, schedule: Q01DX005 (ip), vehicle: saline): 98 % of control | T/C (dose: 120.0 mg/kg/injection, schedule: Q01DX005 (ip), vehicle: saline): 98 % of control | T/C (dose: 240.0 mg/kg/injection, schedule: Q01DX005 (ip), vehicle: saline): 101 % of control

CCCCCCN(CCCCCC)C(C)C(=O)c1ccc2cc(Br)c3ccccc3c2c1 (stereo unspecified)
T/C [10]: 91 % of control | T/C [11]: 94 % of control | T/C (dose: 200.0 mg/kg/injection, schedule: Q01DX005 (ip), vehicle: saline with Tween-80): 94 % of control

N#Cc1cc(C23CCC(C2)N3)ccc1[N+](=O)[O-] (stereo unspecified)
T/C (dose: 100.0 mg/kg/injection, schedule: Q04DX003 (ip), vehicle: saline): 105 % of control | T/C (dose: 200.0 mg/kg/injection, schedule: Q04DX003 (ip), vehicle: saline): 91 % of control | T/C (dose: 400.0 mg/kg/injection, schedule: Q04DX003 (ip), vehicle: saline): 92 % of control

N#CC(Br)(Br)C(=O)c1nc(N)nc(N)n1
T/C (dose: 3.12 mg/kg/injection, schedule: Q01DX005 (ip), vehicle: saline with Tween-80): 96 % of control | T/C (dose: 6.25 mg/kg/injection, schedule: Q01DX005 (ip), vehicle: saline with Tween-80): 100 % of control | T/C [12]: 104 % of control

CCCCNc1ccc(C(=O)OC2CCN(C)CC2)c(Cl)c1
T/C (dose: 0.79 mg/kg/injection, schedule: Q01DX009 (ip), vehicle: saline with Tween-80): 111 % of control and 119 % of control and 97 % of control | T/C (dose: 1.56 mg/kg/injection, schedule: Q01DX009 (ip), vehicle: saline with Tween-80): 106 % of control and 119 % of control | T/C (dose: 12.5 mg/kg/injection, schedule: Q01DX009 (ip), vehicle: saline with Tween-80): 107 % of control

CC1=C(C)OP(=O)(O)O1
T/C (dose: 50.0 mg/kg/injection, schedule: Q01DX009 (ip), vehicle: saline with Tween-80): 100 % of control | T/C (dose: 50.0 mg/kg/injection, schedule: Q01DX009 (ip), vehicle: saline): 100 % of control | T/C (dose: 100.0 mg/kg/injection, schedule: Q01DX009 (ip), vehicle: saline with Tween-80): 100 % of control | T/C (dose: 100.0 mg/kg/injection, schedule: Q01DX009 (ip), vehicle: saline): 96 % of control | T/C (dose: 200.0 mg/kg/injection, schedule: Q01DX009 (ip), vehicle: saline with Tween-80): 95 % of control | T/C (dose: 200.0 mg/kg/injection, schedule: Q01DX009 (ip), vehicle: saline): 100 % of control

C/C(=N\NC(=O)Cc1ccccc1)C(=O)O
T/C (dose: 50.0 mg/kg/injection, schedule: Q01DX005 (ip), vehicle: Klucel (hydroxypropylcellulose) (HPC)): 100 % of control | T/C (dose: 100.0 mg/kg/injection, schedule: Q01DX005 (ip), vehicle: Klucel (hydroxypropylcellulose) (HPC)): 89 % of control | T/C (dose: 200.0 mg/kg/injection, schedule: Q01DX005 (ip), vehicle: Klucel (hydroxypropylcellulose) (HPC)): 94 % of control

O=C(O)/C(=C/c1ccc(/C=C(/C(=O)O)c2ccccc2)o1)c1ccccc1
T/C [6]: 101 % of control | T/C [7]: 97 % of control | T/C [8]: 101 % of control

S=C(NNc1nnc(-c2ccccc2)c(-c2ccccc2)n1)NC1CCCCC1
T/C [10]: 93 % of control | T/C [11]: 88 % of control

CCOC(=O)c1ccc(=O)n2c1[nH]c1ccccc12
T/C [12]: 105 % of control | T/C (dose: 25.0 mg/kg/injection, schedule: Q01DX005 (ip), vehicle: saline with Tween-80): 108 % of control | T/C [10]: 100 % of control and 108 % of control

C=C1C(=O)OC2C(OC(C)=O)CCCC12 (stereo unspecified)
T/C [4]: 112 % of control | T/C [5]: 103 % of control | T/C [9]: 108 % of control

CSc1nc2c3ccccc3ccn2c(=N)c1C#N
T/C (dose: 25.0 mg/kg/injection, schedule: Q04DX002 (ip), vehicle: saline): 104 % of control | T/C (dose: 50.0 mg/kg/injection, schedule: Q04DX002 (ip), vehicle: saline): 109 % of control

N=C(N)c1nn[nH]n1
T/C (dose: 12.5 mg/kg/injection, schedule: Q04DX003 (ip), vehicle: Klucel (hydroxypropylcellulose) (HPC)): 100 % of control | T/C (dose: 25.0 mg/kg/injection, schedule: Q04DX003 (ip), vehicle: Klucel (hydroxypropylcellulose) (HPC)): 100 % of control | T/C (dose: 50.0 mg/kg/injection, schedule: Q04DX003 (ip), vehicle: Klucel (hydroxypropylcellulose) (HPC)): 97 % of control | T/C (dose: 100.0 mg/kg/injection, schedule: Q04DX003 (ip), vehicle: Klucel (hydroxypropylcellulose) (HPC)): 103 % of control | T/C (dose: 200.0 mg/kg/injection, schedule: Q04DX003 (ip), vehicle: Klucel (hydroxypropylcellulose) (HPC)): 100 % of control

Reference: PubChem BioAssay AID330 (DTP/NCI, 2004)
